Results reported in patent publication US9211314B2, “Treatment selection for lung cancer patients using mass spectrum of blood-based sample” (Biodesix, Inc., priority 2014, dated 2015).
Where “and” joins values, the source holds several entries; their conditions need not be identical. Identical values can stand only once.

Experiments:
advanced NSCLC patients [1] = conditions: PROSE, patients classified as VSP (VS1.0); cited from earlier work
advanced NSCLC patients [2] = test: PROSE study: second-line erlotinib versus chemotherapy, OS and PFS by VS2.0/VS1.0 classification; type: in vivo, human
Method: The final CMC/D classifier described above was subject to a test on mass spectra obtained from available samples from the PROSE study under a validation protocol. The final CMC/D classifier was deemed fixed prior to this validation protocol. Mass spectra were provided to analysts blinded to their clinical data. The spectra were analyzed as described above and the resulting classifications (Appendix G) were generated. An un-blinding key was then provided and a statistical analysis was carried out.
For patient 01—044 and patient 01—080, two samples were available. […] No samples were available for patient 01—050, patient 03—006, patient 06—004, patient 06—021, patient 11—043, patient 11—048, and patient 12—014.

advanced NSCLC patients [3] = test: Time-to-event outcomes (OS, PFS) of development set patients (Italian A, B, C cohorts) grouped by VS2.0/VS1.0 classification; type: in vivo, human; conditions: for Cox HR (95% CI), OS / Cox HR (95% CI), PFS / Median OS / Median PFS: development set
Excerpt: The following cohorts of patients had samples available for this project: sample sets known as “Italian A”, “Italian B”, “Italian C.” Italian A and B were cohorts of patients with advanced NSCLC treated with gefitinib used in the development and validation of the original VeriStrat test. See generally, U.S. Pat. No. 7,736,905; Taguchi et al., JNCI 99: 838-846 (2007). Italian C was a cohort of patients treated in advanced line with a variety of chemotherapy regimens.
The VS2.0 final classifier was applied to all samples in the development set. Note that this includes samples included in training of the classifier. The VS2.0 classifications of the development set samples are given in Appendix E. Notice that all samples with a VS1.0 classification of Poor were assigned a label of Early. OS and PFS are plotted for patients in the development set grouped according to: Late, Unknown and Early (excluding VS1.0 Poor) and VS 1.0 Poor in FIG. 6. Note that several patients in the Italian C cohort had OS data, but no PFS data. FIG. 6 is a plot of time-to-event outcomes of patients in the development set with labels assigned from development set spectra; FIG. 6A: OS for gefitinib-treated patients, FIG. 6B: PFS for gefitinib-treated patients, FIG. 6C: OS for chemotherapy-treated patients and FIG. 6D PFS for chemotherapy-treated patients.

[4] = group Early/Unknown (VS1.0 Good)
[5] = comparison Early/Unk vs Late within treatment
[6] = comparison Poor vs Early/Unk within treatment
[7] = comparison Poor vs Late within treatment
[8] = group Early/Unknown (excluding VS1.0 Poor)

SMILES: C#Cc1cccc(Nc2ncnc3cc(OCCOC)c(OCCOC)cc23)c1 [ERL, erlotinib]
- Survival, erlotinib versus chemotherapy (advanced NSCLC patients [1]): better survival on chemotherapy versus erlotinib
- Median OS (advanced NSCLC patients [2]; [4]): 9.6 months
- Median PFS (advanced NSCLC patients [2]; [4]): 2.3 months
- Median OS (advanced NSCLC patients [2]; group Late): 17.1 months
- Median PFS (advanced NSCLC patients [2]; group Late): 3.9 months
- Median OS (advanced NSCLC patients [2]; group Late, listed as erlotinib): 17.1 months and 17 months
- Median OS (advanced NSCLC patients [2]; group VS1.0 Poor): 3.1 months
- Median PFS (advanced NSCLC patients [2]; group VS1.0 Poor): 1.7 months
- HR (95% CI), OS, Treatment: CT vs ERL (advanced NSCLC patients [2]; multivariate analysis of VS1.0 Good population): 1.12 (0.85-1.65)

SMILES: COc1cc2ncnc(Nc3ccc(F)c(Cl)c3)c2cc1OCCCN1CCOCC1 [GEF, gefitinib]
- Cox HR (95% CI), OS (advanced NSCLC patients [3]; [5]): 0.59 (0.37-0.94)
- Cox HR (95% CI), PFS (advanced NSCLC patients [3]; [5]): 0.58 (0.37-0.91)
- Cox HR (95% CI), OS (advanced NSCLC patients [3]; [6]): 0.49 (0.33-0.75)
- Cox HR (95% CI), PFS (advanced NSCLC patients [3]; [6]): 0.64 (0.42-0.95)
- Cox HR (95% CI), OS (advanced NSCLC patients [3]; [7]): 0.30 (0.18-0.49)
- Cox HR (95% CI), PFS (advanced NSCLC patients [3]; [7]): 0.36 (0.22-0.60)
- Median OS (advanced NSCLC patients [3]; [8]): 243 days
- Median PFS (advanced NSCLC patients [3]; [8]): 92 days
- Median OS (advanced NSCLC patients [3]; group Late): 457 days
- Median PFS (advanced NSCLC patients [3]; group Late): 208 days
- Median OS (advanced NSCLC patients [3]; group VS1.0 Poor): 96.5 days
- Median PFS (advanced NSCLC patients [3]; group VS1.0 Poor): 61.5 days
- Benefit by overall survival curves, gefitinib versus chemotherapy (advanced NSCLC patients [3]; patients whose sample tested Late, FIGS. 6A and 6C): greater benefit from gefitinib than chemotherapy
